Test: Plasma pharmacokinetics after single […] IV infusion of nacubactam 2 g coadministered with meropenem 2 g (Phase 1)
Assay type: in vivo, healthy adult male and female volunteers
Details: n = 21, geometric mean (CV%), 2 g nacubactam + 2 g meropenem IV
Protocol: The study consisted of a screening visit (Days −28 to −1), a treatment and sampling period (Day 1), and a safety follow-up visit (Days 7–14). […] The two drugs were administered concurrently as separate solutions through two separate lines via a large bore, double-lumen catheter, under the supervision of study personnel. […] While all participants received the same study drug treatment and followed the same blood sampling scheme, each individual was assigned to one of five possible timepoints (2, 3, 4, 6, or 8 h after the start of study drug administration) for the BAL procedure. Equal numbers of participants were assigned to each timepoint, and assignment of individual participants was at the discretion of the investigator. […] An additional plasma sample was taken at the same time as part of the BAL procedure to measure urea. The plasma samples were stored at −80°C pending analysis. […] PK parameters were estimated by non-compartmental analysis using Phoenix WinNonlin (version 6.4; Certara USA, Inc.) by Covance.

SMILES: NCCONC(=O)[C@@H]1CC[C@@H]2CN1C(=O)N2OS(=O)(=O)O [Nacubactam]
- AUC0–8h: 275 (19) µg·h/mL

— PMC13231895 (Antimicrobial Agents and Chemotherapy, 2026)
